Laboratory results as given in ChEMBL document CHEMBL1201862, “PubChem BioAssay data set” (2004).
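Dose response: 5 concentrations. Exposure: 48 h. Format: 96-well plates. Endpoint: linear interpolation; highest concentration if not reached. GI50 = concentration required for 50% inhibition of growth.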 Activity calls are given as the source filed them. Cut-off read from the data, not from the text of the source: active = GI50 up to about 1.1 µM and inactive = higher.

Assays:
Experiment in all cases: inhibition of tumour cell growth, NCI panel, 48 h
KM-20L2 = system: KM-20L2
DLD-1 = system: DLD-1
SF-295 = system: SF-295
K562 = system: K562
HL-60 = system: HL-60
RXF 393 = system: RXF 393
HOP-18 = system: HOP-18
SF-539 = system: SF-539
XF498 = system: XF498
OVCAR-8 = system: OVCAR-8
HCT-15 = system: HCT-15
Malme-3M = system: Malme-3M
A498 = system: A498
ACHN = system: ACHN
SR = system: SR
Hs-578T = system: Hs-578T
MDA-MB-435 = system: MDA-MB-435
MDA-MB-231 = system: MDA-MB-231
PC-3 = system: PC-3
BT-549 = system: BT-549

Compound | GI50 (KM-20L2) | GI50 (DLD-1) | GI50 (SF-295) | GI50 (K562) | GI50 (HL-60) | GI50 (RXF 393) | GI50 (HOP-18) | GI50 (SF-539) | GI50 (XF498) | GI50 (OVCAR-8) | GI50 (HCT-15) [µM] | GI50 (Malme-3M) | GI50 (A498) | GI50 (ACHN) | GI50 (SR) | GI50 (Hs-578T) | GI50 (MDA-MB-435) | GI50 (MDA-MB-231) | GI50 (PC-3) | GI50 (BT-549)
CC(=O)OCc1cc(=O)n(C)c2c3c4c(cc12)c(C)cc(=O)n4CO3 | 2.02 µM (inactive) | 1.37 µM (inactive) | 1.57 µM (inactive) | 1.14 µM (inactive) | 1.4 µM (inactive) | 1.3 µM (inactive) | 5.33 µM (inactive) | 1.03 µM (active) | 1.17 µM (inactive) | 0.555 µM (active) | 1.95 | 0.906 µM (active) | 2.38 µM (inactive) |  |  |  |  |  |  | 
COc1ccc(/C(C)=N/NC(=S)N(C)C)c(O)c1 |  |  | 4.05 µM (inactive) |  |  |  |  |  |  |  |  |  |  | 6.41 µM (inactive) | 36.3 µM (inactive) | 53.1 µM (inactive) | 27.7 µM (inactive) | 5.96 µM (inactive) | 6.4 µM (inactive) | 18.9 µM (inactive)
Cn1c(/C=C/CO)c(CO)c2c1C(=O)C=C(N1CC1)C2=O [APAZIQUONE] | 0.0147 µM (active) | 0.0152 µM (active) | < 0.01 µM (active) | 0.0195 µM (active) | 0.0259 µM (active) | < 0.01 µM (active) | < 0.01 µM (active) | < 0.01 µM (active) | < 0.01 µM (active) | < 0.0156 µM (active) | < 0.01 | < 0.01 µM (active) | < 0.0124 µM (active) |  |  |  |  |  |  | 
C1=Nc2ccccc2Cn2nncc21 | > 100 µM (inactive) | 57.3 µM (inactive) |  | 35.2 µM (inactive) | 25.4 µM (inactive) | > 100 µM (inactive) | 74.8 µM (inactive) | 28.6 µM (inactive) | > 100 µM (inactive) | > 100 µM (inactive) | 41.8 | 63 µM (inactive) |  | > 100 µM (inactive) | 60.3 µM (inactive) |  |  |  |  | 
Cc1cc(C)c(S(=O)(=O)N(CCCN)OCCCN)c(C)c1 |  |  | > 100 µM (inactive) | > 100 µM (inactive) |  | > 100 µM (inactive) |  | > 100 µM (inactive) |  | > 100 µM (inactive) |  | > 100 µM (inactive) |  | > 100 µM (inactive) | > 100 µM (inactive) | > 100 µM (inactive) | > 100 µM (inactive) | > 100 µM (inactive) | > 100 µM (inactive) | > 100 µM (inactive)
CO/N=C\c1cc(O)c(O)c(/C=N/OC)c1 |  |  | 48 µM (inactive) | 29.8 µM (inactive) | 3.48 µM (inactive) | 51.2 µM (inactive) |  | 27 µM (inactive) |  | 23.4 µM (inactive) | 33.3 | 52.7 µM (inactive) | 49.1 µM (inactive) | 29.6 µM (inactive) | 5.83 µM (inactive) | 12.6 µM (inactive) | 50.5 µM (inactive) | 36.1 µM (inactive) | 33.7 µM (inactive) | > 100 µM (inactive)
